Like-named read-outs stand apart in the source and are kept apart here.
Key:
CB1 receptor = CB1 receptor (Homo sapiens, UniProt P21554); assay: Calcium mobilization assay, agonist mode, CHO expressing CB1 and Gα16; type: cell-based; conditions: agonist activity, CHO expressing CB1, mean ± SEM; read-out: CB1 EC50
Experimental: (§1) Chinese hamster ovarian (CHO) cells collected from the American Type Culture Collection were maintained in Ham’s F-12K (Kaighn’s) supplemented with 100 mg/L streptomycin, 100 mg/L penicillin, and 10% fetal bovine serum (FBS) in a humidified atmosphere of 5% CO2 at 37 °C. CHO cells were co-transfected with plasmids encoding CB1 or CB2 and Gα16 by electroporation. To establish stable cell lines, transfected cells were seeded on 10 cm dishes with 40 μg/mL blasticidin and 1 mg/mL G418 in culture medium after 24 h. The selection medium was substituted once every 3 days until colonies formed. A solitary colony was obtained, propagated, and assessed using a calcium mobilization assay to verify the function and expression of the transfected genes.
(§2) 3 × 10^4 cells/well were employed to seed cells onto 96-well plates, which were subsequently incubated throughout the night. […] For antagonist mode, the extra dye was washed out and 50 μL of HBSS with test compounds, DMSO (negative control), or AM630 (positive control) was introduced. […] To be noticed, each experiment has been independently replicated three times, with three repetitions and eight gradients each time.
(§3) The collected data were processed with GraphPad Prism software (GraphPad). […] Means ± SEM were computed utilizing this software. The analyses were evaluated by the Student t test. When the p value is smaller than 0.05, the result is statistically significant.

CB2 receptor = biological target: T1, CB2 receptor (Homo sapiens, UniProt P34972); assay: Calcium mobilization assay, agonist mode, CHO expressing CB2 and Gα16; type: cell-based; conditions: for SI, selectivity index for the CB2, SI = EC50(CB1)/EC50(CB2): agonist mode
T1 construct: expressed in transfected cells
T1 sequence (P34972 whole entry): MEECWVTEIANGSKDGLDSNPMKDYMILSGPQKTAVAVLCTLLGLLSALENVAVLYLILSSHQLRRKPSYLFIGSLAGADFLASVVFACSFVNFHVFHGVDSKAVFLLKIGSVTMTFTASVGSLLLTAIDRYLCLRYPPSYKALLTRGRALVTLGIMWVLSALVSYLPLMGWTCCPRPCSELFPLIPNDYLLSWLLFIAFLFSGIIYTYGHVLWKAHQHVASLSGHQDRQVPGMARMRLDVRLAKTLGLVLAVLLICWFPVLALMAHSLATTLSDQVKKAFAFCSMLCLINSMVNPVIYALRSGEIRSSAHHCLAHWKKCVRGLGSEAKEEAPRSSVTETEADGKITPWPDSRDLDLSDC
Experimental: as §1, §2, §3

[1] = agonist activity, CHO expressing CB2, three independent assays, mean ± SEM, read-out: CB2 EC50
[2] = single independent experiment, replicate 1, read-out: CB2 agonist(μM) replicate 1
[3] = single independent experiment, replicate 2, read-out: CB2 agonist(μM) replicate 2
[4] = single independent experiment, replicate 3, read-out: CB2 agonist(μM) replicate3

CB1 receptor, sequence (P21554 whole entry): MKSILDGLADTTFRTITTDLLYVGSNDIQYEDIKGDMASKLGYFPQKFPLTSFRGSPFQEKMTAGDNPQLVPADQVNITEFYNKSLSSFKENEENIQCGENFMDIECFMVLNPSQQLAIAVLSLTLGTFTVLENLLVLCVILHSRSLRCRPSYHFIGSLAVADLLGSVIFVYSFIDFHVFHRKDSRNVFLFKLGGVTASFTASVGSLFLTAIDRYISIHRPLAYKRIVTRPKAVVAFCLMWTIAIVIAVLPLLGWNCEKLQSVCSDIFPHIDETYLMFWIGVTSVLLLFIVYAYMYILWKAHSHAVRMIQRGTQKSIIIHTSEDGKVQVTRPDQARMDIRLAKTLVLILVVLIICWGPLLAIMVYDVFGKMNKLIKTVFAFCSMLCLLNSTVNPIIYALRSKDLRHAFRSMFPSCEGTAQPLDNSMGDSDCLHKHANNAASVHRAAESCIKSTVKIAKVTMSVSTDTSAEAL

| SMILES | EC50 (CB1 receptor) | CB1 and CB2 biological activity (in words) (CB2 receptor; CB1 and CB2 calcium mobilization assays, up to 10 μM) | EC50 (CB2 receptor; [1]) | SI, selectivity index for the CB2, SI = EC50(CB1)/EC50(CB2) (CB2 receptor) | EC50 (CB2 receptor; [2]) | EC50 (CB2 receptor; [3]) | EC50 (CB2 receptor; [4]) |
| --- | --- | --- | --- | --- | --- | --- | --- |
| CC(C)CN1C(=O)SC(=Cc2ccccc2OC(=O)N2CCOCC2)C1=O [Compound 15, 2-((3-Isobutyl-2,4-dioxothiazolidin-5-ylidene)methyl)phenyl Morpholine-4-carboxylate] | > 10000 nM | – | 1.58 ± 1.12 µM | >6 | 0.486 µM | 3.82 µM | 0.43 µM |
| CC(C)CN1C(=O)S/C(=C\c2ccccc2OC(=O)C(C)(C)CCl)C1=O [Compound 16, 2-((3-Isobutyl-2,4-dioxothiazolidin-5-ylidene)methyl) Phenyl 3-Chloro-2,2-dimethylpropanoate] | > 10000 nM | – | 1.51 ± 0.29 µM | >6 | 0.949 µM | 1.89 µM | 1.69 µM |
| CC(C)N1C(=O)SC(=Cc2ccccc2OC(=O)N2CCOCC2)C1=O [Compound 17, 2-((3-Isopropyl-2,4-dioxothiazolidin-5-ylidene)methyl)phenyl Morpholine-4-carboxylate] | > 10000 nM | – | 0.66 ± 0.34 µM | >15 | 0.166 µM | 1.31 µM | 0.489 µM |
| CC(C)N1C(=O)S/C(=C\c2ccccc2OC(=O)c2ccccc2F)C1=O [Compound 18, 2-((3-Isopropyl-2,4-dioxothiazolidin-5-ylidene)methyl) Phenyl 2-Fluoro Benzoate] | > 10000 nM | – | 3.64 ± 1.14 µM | >2 | 4.96 µM | 4.58 µM | 1.38 µM |
| CC(C)N1C(=O)SC(=Cc2ccccc2OC(=O)C(C)(C)CCl)C1=O [Compound 21, 2-((3-Isopropyl-2,4-dioxothiazolidin-5-ylidene)methyl)phenyl 3-Chloro-2,2-dimethylpropanoate] | > 10000 nM | – | 2.33 ± 0.45 µM | >4 | 1.46 µM | 2.61 µM | 2.93 µM |
| CC(C)N1C(=O)SC(=Cc2ccccc2OC(=O)C2CC2)C1=O [Compound 22, 2-((3-Isopropyl-2,4-dioxothiazolidin-5-ylidene)methyl)phenyl Cyclopropane Carboxylate] | > 10000 nM | – | 4.12 ± 1.31 µM | >2 | 2.19 µM | 6.61 µM | 3.56 µM |
| N#Cc1ccccc1COc1cccc(C=C2SC(=O)N(C3CCCC3)C2=O)c1 [Compound 27, 2-((3-((3-Cyclopentyl-2,4-dioxothiazolidin-5-ylidene)methyl)phenoxy)methyl) Benzonitrile] | > 10000 nM | – | > 10 µM | – | – | – | – |
| COc1ccc(C=C2SC(=O)N(C(C)C)C2=O)cc1OC(=O)c1cccc(Br)c1 [Compound 28, 5-((3-Isopropyl-2,4-dioxothiazolidin-5-ylidene)methyl)-2-methoxyphenyl 3-Bromobenzoate] | > 10000 nM | – | 2.96 ± 2.3 µM | >3 | 0.637 µM | 7.56 µM | 0.693 µM |
| COc1ccc(/C=C2\SC(=O)N(C(C)C)C2=O)cc1OC(=O)c1ccc(CCl)cc1 [Compound 30, 5-((3-Isopropyl-2,4-dioxothiazolidin-5-ylidene) Methyl)-2-methoxyphenyl 4-(Chloromethyl) Benzoate] | > 10000 nM | – | > 10 µM | – | – | – | – |
| COc1ccc(C=C2SC(=O)N(C(C)C)C2=O)cc1OC(=O)C(C)(C)CCl [Compound 31, 5-((3-Isopropyl-2,4-dioxothiazolidin-5-ylidene) Methyl)-2-methoxyphenyl 3-Chloro-2,2-dimethylpropanoate] | > 10000 nM | – | 3.38 ± 2.15 µM | >3 | 0.814 µM | 1.68 µM | 7.65 µM |
| CCCC(=O)Oc1cc(C=C2SC(=O)N(C(C)C)C2=O)ccc1OC [Compound 33, 5-((3-Isopropyl-2,4-dioxothiazolidin-5-ylidene)methyl)-2-methoxyphenylbuty Rate] | > 10000 nM | – | > 10 µM | – | – | – | – |
| COc1ccc(C=C2SC(=O)N(CC(C)C)C2=O)cc1OC(=O)C(C)(C)CCl [Compound 34, 5-((3-Isobutyl-2,4-dioxothiazolidin-5-ylidene)methyl)-2-methoxyphenyl 3-Chloro-2,2-dimethylpropanoate] | > 10000 nM | – | > 10 µM | – | – | – | – |
| COc1ccc(C=C2SC(=O)N(CC(C)C)C2=O)cc1OC(=O)c1cccc(Br)c1 [Compound 35, 5-((3-Isobutyl-2,4-dioxothiazolidin-5-ylidene)methyl)-2-methoxyphenyl 3-Bromobenzoate] | > 10000 nM | – | > 10 µM | – | – | – | – |
| COc1ccc(/C=C2\SC(=O)N(CC(C)C)C2=O)cc1OC(=O)C12CC3CC(CC(C3)C1)C2 [Compound 37, 5-((3-Isobutyl-2,4-dioxothiazolidin-5-ylidene)methyl)-2-methoxyphenyl (3r, 5r,7r)-adamantane-1-carboxylate] | > 10000 nM | – | > 10 µM | – | – | – | – |

Now from value to molecule:

| EC50 (CB1 receptor) | CB1 and CB2 biological activity (in words) (CB2 receptor; CB1 and CB2 calcium mobilization assays, up to 10 μM) | EC50 (CB2 receptor; [1]) | SI, selectivity index for the CB2, SI = EC50(CB1)/EC50(CB2) (CB2 receptor) | EC50 (CB2 receptor; [2]) | EC50 (CB2 receptor; [3]) | EC50 (CB2 receptor; [4]) | SMILES |
| --- | --- | --- | --- | --- | --- | --- | --- |
| > 10000 nM | no bioactivity | > 10 µM | – | – | – | – | O=C1SC(=Cc2ccccc2OCc2ccccc2F)C(=O)N1C1CCCC1 [Compound 12, 3-Cyclopentyl-5-(2-((2-fluorobenzyl)oxy)benzylidene)thiazolidine-2,4-dione] |
| > 10000 nM | – | 1.78 ± 0.25 µM | >5 | 1.66 µM | 2.26 µM | 1.44 µM | CC(C)CN1C(=O)SC(=Cc2ccccc2OC(=O)c2ccccc2F)C1=O [Compound 13, 2-((3-Isobutyl-2,4-dioxothiazolidin-5-ylidene)methyl)phenyl 2-Fluorobenzoate] |
| > 10000 nM | – | > 10 µM | – | – | – | – | CCCCCCCC(=O)Oc1ccccc1C=C1SC(=O)N(CC(C)C)C1=O [Compound 14, 2-((3-Isobutyl-2,4-dioxothiazolidin-5-ylidene)methyl) Phenyl Octanoate] |
| > 10000 nM | – | > 10 µM | – | – | – | – | CC(C)N1C(=O)S/C(=C\c2ccccc2OC(=O)C23CC4CC(CC(C4)C2)C3)C1=O [Compound 19, 2-((3-Isopropyl-2,4-dioxothiazolidin-5-ylidene) Methyl) Phenyl (3r,5r,7r)-Adamantane-1-carboxylate] |
| > 10000 nM | – | > 10 µM | – | – | – | – | CCCCCCCC(=O)Oc1ccccc1/C=C1\SC(=O)N(C(C)C)C1=O [Compound 20, 2-((3-Isopropyl-2,4-dioxothiazolidin-5-ylidene) Methyl) Phenyl Octanoate] |
| > 10000 nM | – | 0.82 ± 0.41 µM | >12 | 0.225 µM | 0.638 µM | 1.6 µM | CC(C)N1C(=O)SC(=Cc2ccccc2OC(=O)C2CCCCCC2)C1=O [Compound 23, 2-((3-Isopropyl-2,4-dioxothiazolidin-5-ylidene)methyl)phenyl Cycloheptane Carboxylate] |
| > 10000 nM | – | 3.93 ± 1.97 µM | >2 | 7.84 µM | 2.4 µM | 1.54 µM | CC(C)N1C(=O)SC(=Cc2ccccc2OC(=O)c2ccc(Cl)nc2)C1=O [Compound 24, 2-((3-Isopropyl-2,4-dioxothiazolidin-5-ylidene)methyl)phenyl 6-Chloronico Tinate] |
| > 10000 nM | – | > 10 µM | – | – | – | – | CC(C)N1C(=O)SC(=Cc2cccc(OCc3ccccc3C#N)c2)C1=O [Compound 25, 2-((3-((3-Isopropyl-2,4-dioxothiazolidin-5-ylidene)methyl)phenoxy)methyl) Benzonitrile] |
| > 10000 nM | – | > 10 µM | – | – | – | – | CC(C)CN1C(=O)SC(=Cc2cccc(OCc3ccccc3C#N)c2)C1=O [Compound 26, 2-((3-((3-Isobutyl-2,4-dioxothiazolidin-5-ylidene)methyl)phenoxy)methyl) Benzonitrile] |
| > 10000 nM | – | > 10 µM | – | – | – | – | COc1ccc(C=C2SC(=O)N(C(C)C)C2=O)cc1OC(=O)c1ccccc1F [Compound 29, 5-((3-Isopropyl-2,4-dioxothiazolidin-5-ylidene)methyl)-2-methoxyphenyl 2-Fluorobenzoate] |
| > 10000 nM | – | 0.83 ± 0.65 µM | >12 | 0.093 µM | 0.287 µM | 2.12 µM | COc1ccc(/C=C2\SC(=O)N(C(C)C)C2=O)cc1OC(=O)C12CC3CC(CC(C3)C1)C2 [Compound 32, 5-((3-Isopropyl-2,4-dioxothiazolidin-5-ylidene) Methyl)-2-methoxyphenyl (3r, 5r, 7r)-Adamantane-1-carboxylate] |
| > 10000 nM | – | > 10 µM | – | – | – | – | COc1ccc(C=C2SC(=O)N(CC(C)C)C2=O)cc1OC(=O)c1ccc(CCl)cc1 [Compound 36, 5-((3-Isobutyl-2,4-dioxothiazolidin-5-ylidene)methyl)-2-methoxyphenyl 4-(Chloromethyl)benzoate] |

— article PMC10623575, “Discovery of Potent and Selective CB2 Agonists Utilizing a Function-Based Computational Screening Protocol” (ACS Chemical Neuroscience, 2023)
